# Source: PubChem BioAssay AID256 (DTP/NCI, 2004)
# Several values for one entry are separate records, joined by “and”; a condition that tells them apart may be missing. Equal entries are not always repeated. Inconclusive results and toxic doses are left out.
# Test system: CD2F1 mice, L1210 leukemia ip, survival T/C
# Test: NCI In Vivo Anticancer Drug Screen. Data for tumor model L1210 Leukemia (intraperitoneal) in CD2F1 (CDF1) mice
# Details: higher = longer survival
# Outline: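 Tumor-bearing mice (transplanted tumor) were split into treated and vehicle control groups, and the measured endpoint of each treated group was divided by that of its vehicle controls.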
# [1] = endpoint: mean survival time, dose: 100.0 mg/kg/injection, schedule: Q01DX001 (ip), vehicle: saline
# [2] = endpoint: mean survival time, dose: 200.0 mg/kg/injection, schedule: Q01DX001 (ip), vehicle: saline
# [3] = endpoint: mean survival time, dose: 100.0 mg/kg/injection, schedule: Q01DX009 (ip), vehicle: saline
# [4] = endpoint: mean survival time, dose: 100.0 mg/kg/injection, schedule: Q04DX003 (ip), vehicle: saline
# [5] = endpoint: mean survival time, dose: 200.0 mg/kg/injection, schedule: Q01DX009 (ip), vehicle: saline
# [6] = endpoint: mean survival time, dose: 200.0 mg/kg/injection, schedule: Q04DX003 (ip), vehicle: saline
# [7] = endpoint: mean survival time, dose: 400.0 mg/kg/injection, schedule: Q04DX003 (ip), vehicle: saline
# [8] = endpoint: mean survival time, dose: 100.0 mg/kg/injection, schedule: Q01DX009 (ip), vehicle: saline with Tween-80
# [9] = endpoint: mean survival time, dose: 100.0 mg/kg/injection, schedule: Q04DX003 (ip), vehicle: saline with Tween-80
# [10] = endpoint: mean survival time, dose: 200.0 mg/kg/injection, schedule: Q01DX009 (ip), vehicle: saline with Tween-80
# [11] = endpoint: mean survival time, dose: 200.0 mg/kg/injection, schedule: Q04DX003 (ip), vehicle: saline with Tween-80
# [12] = endpoint: mean survival time, dose: 400.0 mg/kg/injection, schedule: Q01DX009 (ip), vehicle: saline with Tween-80
# [13] = endpoint: mean survival time, dose: 400.0 mg/kg/injection, schedule: Q04DX003 (ip), vehicle: saline with Tween-80
# [14] = endpoint: mean survival time, dose: 400.0 mg/kg/injection, schedule: Q01DX001 (ip), vehicle: saline
# [15] = endpoint: mean survival time, dose: 400.0 mg/kg/injection, schedule: Q01DX009 (ip), vehicle: saline
smiles,measurement,setting,value
NC(Cc1ccc(N(CCCl)CCCl)cc1)C(=O)O (stereo not drawn),T/C,"endpoint: mean survival time, dose: 5.0 mg/kg/injection, schedule: Q01DX009 (ip), vehicle: Klucel (hydroxypropylcellulose) (HPC)",106 % of control
same,T/C,"endpoint: mean survival time, dose: 5.0 mg/kg/injection, schedule: Q01DX009 (ip), vehicle: saline with Tween-80",121 % of control
same,T/C,"endpoint: mean survival time, dose: 6.4 mg/kg/injection, schedule: Q01DX001 (ip), vehicle: water",104 % of control
same,T/C,"endpoint: mean survival time, dose: 6.4 mg/kg/injection, schedule: Q11HX001 (ip), vehicle: water",104 % of control
same,T/C,"endpoint: mean survival time, dose: 8.0 mg/kg/injection, schedule: Q01DX001 (ip), vehicle: water",101 % of control
same,T/C,"endpoint: mean survival time, dose: 8.0 mg/kg/injection, schedule: Q11HX001 (ip), vehicle: water",101 % of control
same,T/C,"endpoint: mean survival time, dose: 10.0 mg/kg/injection, schedule: Q01DX001 (ip), vehicle: water",105 % of control
same,T/C,"endpoint: mean survival time, dose: 10.0 mg/kg/injection, schedule: Q01DX009 (ip), vehicle: Klucel (hydroxypropylcellulose) (HPC)",105 % of control
same,T/C,"endpoint: mean survival time, dose: 10.0 mg/kg/injection, schedule: Q01DX009 (ip), vehicle: saline with Tween-80",113 % of control
same,T/C,"endpoint: mean survival time, dose: 10.0 mg/kg/injection, schedule: Q03DX003 (ip), vehicle: Klucel (hydroxypropylcellulose) (HPC)",183 % of control
same,T/C,"endpoint: mean survival time, dose: 10.0 mg/kg/injection, schedule: Q04DX003 (ip), vehicle: Klucel (hydroxypropylcellulose) (HPC)",168 % of control
same,T/C,"endpoint: mean survival time, dose: 10.0 mg/kg/injection, schedule: Q11HX001 (ip), vehicle: water",105 % of control
same,T/C,"endpoint: mean survival time, dose: 12.5 mg/kg/injection, schedule: Q01DX001 (ip), vehicle: water",104 % of control
same,T/C,"endpoint: mean survival time, dose: 12.5 mg/kg/injection, schedule: Q11HX001 (ip), vehicle: water",104 % of control
same,T/C,"endpoint: mean survival time, dose: 20.0 mg/kg/injection, schedule: Q01DX007 (ip), vehicle: Klucel (hydroxypropylcellulose) (HPC)",94 % of control
same,T/C,"endpoint: mean survival time, dose: 20.0 mg/kg/injection, schedule: Q01DX007 (ip), vehicle: saline with Tween-80",113 % of control
same,T/C,"endpoint: mean survival time, dose: 20.0 mg/kg/injection, schedule: Q01DX009 (ip), vehicle: Klucel (hydroxypropylcellulose) (HPC)",86 % of control
same,T/C,"endpoint: mean survival time, dose: 20.0 mg/kg/injection, schedule: Q01DX009 (ip), vehicle: saline with Tween-80",100 % of control
same,T/C,"endpoint: mean survival time, dose: 20.0 mg/kg/injection, schedule: Q04DX003 (ip), vehicle: Klucel (hydroxypropylcellulose) (HPC)",186 % of control
same,T/C,"endpoint: median survival time, dose: 4.0 mg/kg/injection, schedule: Q01DX009 (ip), vehicle: saline",183 % of control
same,T/C,"endpoint: median survival time, dose: 8.0 mg/kg/injection, schedule: Q01DX009 (ip), vehicle: saline",155 % of control
same,T/C,"endpoint: median survival time, dose: 16.0 mg/kg/injection, schedule: Q01DX009 (ip), vehicle: saline",88 % of control
c1ccc2c(-c3nn[nH]n3)nccc2c1,T/C,[1],106 % of control
same,T/C,[2],113 % of control
OCC1OC(n2cnc3c(N4CCCC4)ncnc32)C(O)C1O (stereo not drawn),T/C,"endpoint: mean survival time, dose: 12.5 mg/kg/injection, schedule: Q01DX005 (ip), vehicle: other",101 % of control
same,T/C,"endpoint: mean survival time, dose: 25.0 mg/kg/injection, schedule: Q01DX005 (ip), vehicle: other",101 % of control
same,T/C,"endpoint: mean survival time, dose: 50.0 mg/kg/injection, schedule: Q01DX005 (ip), vehicle: other",108 % of control
same,T/C,"endpoint: mean survival time, dose: 100.0 mg/kg/injection, schedule: Q01DX005 (ip), vehicle: other",106 % of control
same,T/C,"endpoint: mean survival time, dose: 200.0 mg/kg/injection, schedule: Q01DX005 (ip), vehicle: other",96 % of control
Cc1cc(N=CN(C)C)c2ccccc2n1,T/C,"endpoint: mean survival time, dose: 3.12 mg/kg/injection, schedule: Q01DX009 (ip), vehicle: other",106 % of control
same,T/C,"endpoint: mean survival time, dose: 6.25 mg/kg/injection, schedule: Q01DX009 (ip), vehicle: other",100 % of control
same,T/C,"endpoint: mean survival time, dose: 12.5 mg/kg/injection, schedule: Q01DX009 (ip), vehicle: other",100 % of control
same,T/C,"endpoint: mean survival time, dose: 25.0 mg/kg/injection, schedule: Q01DX009 (ip), vehicle: other",106 % of control and 107 % of control
CN(C)CCCCO,T/C,"endpoint: mean survival time, dose: 50.0 mg/kg/injection, schedule: Q01DX009 (ip), vehicle: saline",98 % of control
same,T/C,[3],98 % of control
same,T/C,[4],95 % of control
same,T/C,[5],97 % of control
same,T/C,[6],96 % of control
OCCOCCN1CCN(CC/C=C2\c3ccccc3Sc3ccc(C(F)(F)F)cc32)CC1,T/C,"endpoint: mean survival time, dose: 0.75 mg/kg/injection, schedule: Q01DX009 (ip), vehicle: saline",87 % of control
same,T/C,"endpoint: mean survival time, dose: 1.5 mg/kg/injection, schedule: Q01DX009 (ip), vehicle: saline",94 % of control
same,T/C,"endpoint: mean survival time, dose: 3.0 mg/kg/injection, schedule: Q01DX009 (ip), vehicle: saline",100 % of control
same,T/C,"endpoint: mean survival time, dose: 6.25 mg/kg/injection, schedule: Q04DX003 (ip), vehicle: saline",103 % of control
same,T/C,"endpoint: mean survival time, dose: 8.0 mg/kg/injection, schedule: Q04DX003 (ip), vehicle: saline with Tween-80",115 % of control
same,T/C,"endpoint: mean survival time, dose: 12.0 mg/kg/injection, schedule: Q04DX003 (ip), vehicle: saline with Tween-80",116 % of control
same,T/C,"endpoint: mean survival time, dose: 25.0 mg/kg/injection, schedule: Q04DX003 (ip), vehicle: saline",97 % of control
same,T/C,"endpoint: mean survival time, dose: 50.0 mg/kg/injection, schedule: Q04DX003 (ip), vehicle: saline",111 % of control
same,T/C,[4],93 % of control
CNC(=O)NC1C(CO)OC2OC(C)(C)OC21 (stereo not drawn),T/C,[4],96 % of control
same,T/C,[6],94 % of control
same,T/C,[7],96 % of control
CCC12C=CCN3CCC4(c5cc(C6c7[nH]c8ccccc8c7CCN7CCCCC67)c(OC)cc5N(C)C4C(O)(C(=O)OC)C1OC(C)=O)C32 (stereo not drawn),T/C,"endpoint: mean survival time, dose: 0.06 mg/kg/injection, schedule: Q01DX009 (ip), vehicle: other",93 % of control
same,T/C,"endpoint: mean survival time, dose: 0.13 mg/kg/injection, schedule: Q01DX009 (ip), vehicle: other",93 % of control
same,T/C,"endpoint: mean survival time, dose: 0.25 mg/kg/injection, schedule: Q01DX009 (ip), vehicle: other",92 % of control
same,T/C,"endpoint: mean survival time, dose: 0.5 mg/kg/injection, schedule: Q01DX009 (ip), vehicle: other",95 % of control
same,T/C,"endpoint: mean survival time, dose: 1.0 mg/kg/injection, schedule: Q01DX009 (ip), vehicle: other",90 % of control
same,T/C,"endpoint: mean survival time, dose: 2.0 mg/kg/injection, schedule: Q01DX009 (ip), vehicle: other",93 % of control
same,T/C,"endpoint: mean survival time, dose: 4.0 mg/kg/injection, schedule: Q01DX009 (ip), vehicle: other",93 % of control
CCC(C)OC(=O)Nc1ccccc1 (stereo not drawn),T/C,[8],96 % of control
same,T/C,[9],94 % of control
same,T/C,[10],98 % of control
same,T/C,[11],94 % of control
same,T/C,[12],98 % of control
same,T/C,[13],94 % of control
O=C1C=C(NCCO)C(=O)C=C1NCCO,T/C,"endpoint: mean survival time, dose: 100.0 mg/kg/injection, schedule: Q01DX001 (ip), vehicle: saline with Tween-80",98 % of control
same,T/C,"endpoint: mean survival time, dose: 200.0 mg/kg/injection, schedule: Q01DX001 (ip), vehicle: saline with Tween-80",90 % of control
same,T/C,"endpoint: mean survival time, dose: 400.0 mg/kg/injection, schedule: Q01DX001 (ip), vehicle: saline with Tween-80",95 % of control
CCCCCCCC(=O)Nc1ccc(C)c(C)c1,T/C,[8],89 % of control
same,T/C,[10],91 % of control
same,T/C,[12],96 % of control
CC(C)(O)C#CC(C)(C)O,T/C,[4],101 % of control
same,T/C,[6],101 % of control
same,T/C,[7],97 % of control
O=C1OC(c2ccccc2)(c2ccccc2)c2ccc3ccccc3c21,T/C,[9],96 % of control
same,T/C,[11],93 % of control
same,T/C,[13],90 % of control
CCC1(CC)C=CCC/C1=N\NS(=O)(=O)c1ccc(C)cc1,T/C,"endpoint: mean survival time, dose: 50.0 mg/kg/injection, schedule: Q01DX009 (ip), vehicle: saline with Tween-80",95 % of control
same,T/C,[8],90 % of control
same,T/C,[9],95 % of control
same,T/C,[10],93 % of control
same,T/C,[11],91 % of control
CC(C)=CC(C)=Nc1ccccc1,T/C,[1],90 % of control
same,T/C,[4],102 % of control
same,T/C,[2],96 % of control
same,T/C,[6],96 % of control
same,T/C,[14],98 % of control
same,T/C,[7],104 % of control
CCCOC(=O)C(SCCN(C)C)c1ccccc1 (stereo not drawn),T/C,[1],102 % of control
same,T/C,[3],93 % of control
same,T/C,[2],97 % of control
same,T/C,[5],100 % of control
same,T/C,[14],94 % of control
same,T/C,[15],98 % of control
C#CC[N+](CCO)(CCO)CCCCCCCCCCCCCCCCCC,T/C,"endpoint: mean survival time, dose: 12.5 mg/kg/injection, schedule: Q04DX002 (ip), vehicle: saline with Tween-80",101 % of control
same,T/C,"endpoint: mean survival time, dose: 25.0 mg/kg/injection, schedule: Q04DX002 (ip), vehicle: saline with Tween-80",101 % of control
same,T/C,"endpoint: mean survival time, dose: 50.0 mg/kg/injection, schedule: Q04DX002 (ip), vehicle: saline with Tween-80",101 % of control
CCOC(=O)/C(N=O)=C(/C)O,T/C,[3],96 % of control
same,T/C,[5],101 % of control
same,T/C,[15],110 % of control
